Patent publication US10350204B2, “Methods for treating cognitive deficits associated with fragile X syndrome” (Wisconsin Alumni Research Foundation, priority 2015, dated 2019)

Assays:
Type in all cases: cell-based, mouse
[1] = test system: Fmr1 KO and wildtype NPCs; assay: BrdU proliferation assay of cultured NPCs
Protocol: We used only early passage cells (between passage 4 and 10) and only the same passage numbers of wild type (WT) and Fmr1 KO cells. For each experiment, triplicate wells of cells were analyzed, and results were averaged as one data point (n=1). At least 3 independent experiments (n=3) were performed and used for statistical analyses for each analysis. To study cell proliferation, we dissociated neural stem cells with trypsin and plated them on poly-L-ornithine and laminin-coated 24 well plate (Scientific fisher, 87721) at a density of 100,000 cells per well in proliferation medium. At 20 h post-plating, 5 μM 5-bromo-2.′-deoxyuridine (BrdU, Sigma-Aldrich) was added into the culture medium for 6 h. NPCs were then washed with PBS and fixed with 4% paraformaldehyde for 30 min at room temperature, followed by immunohistochemical analysis. To detect BrdU incorporation, fixed cells were pretreated with 1M HCl for 30 min at 37° C., and then washed with borate buffer, pH 8.5, for 30 min. We then followed our standard immunohistochemistry protocol^10. BrdU incorporation assay was determined using an Operetta high content imaging system (PerkinElmer, Inc) and Harmony quantification software (PerkinElmer, Inc). The percentage of proliferating cells was defined as the number of BrdU-labeled cells divided by total DAPI-positive cells.
For proliferation assay in vitro, 1 μM MK2206 (Selleckchem, S1078) (AKT phosphorylation inhibitor), or 2 μM Nutlin-3 (Nt3, Selleckchem, 51061) (Mdm2 inhibitor), or 1 μM RG7112 (Selleckchem, S7030) (Mdm2 inhibitor) or YH239-EE (Selleckchem 57489) (4 μM) (Mdm2 inhibitor) was added to proliferating NPCs at 6 hours post-plating. Cells were then pulse labeled 18 hours later with 5 μM 5-bromo-2′-deoxyuridine (BrdU, Sigma-Aldrich, B5002) and incubated for 6 hours in the presence of inhibitor, followed by fixation, staining, and quantification.

[2] = test system: Fmr1 KO and wildtype NPCs; assay: Differentiation assay of cultured NPCs (Tuj1 neurons, GFAP astrocytes); conditions: 4 days
Protocol: Proliferation and differentiation of aNPCs were analyzed using our published methods (Guo et al., Nature Med. (2011); Guo et al., Neuron 70, 924-938 (2011); Luo et al., PLoS Genet 6 (2010); Liu et al., Cell Stem Cell 6 (2010)). We used only early passage cells (between passage 4 and 10) and only the same passage numbers of wild type (WT) and Fmr1 KO cells. For each experiment, triplicate wells of cells were analyzed, and results were averaged as one data point (n=1). At least 3 independent experiments (n=3) were performed and used for statistical analyses for each analysis. […] For the differentiation assay, at 24 h post-plating, cells were changed into differentiation medium, Neurobasal A, containing 5 μM forskolin (Sigma-Aldrich, F-6886) and 1 μM retinoic acid (Sigma-Aldrich, R-2625) for 4 d, followed by fixation with 4% paraformaldehyde for 30 min, and then washed with Dulbecco's Phosphate Buffered Saline (DPBS), pH 7.4 for 30 min. Immunocytochemistry staining was carried out as described (Guo et al., Nature Med. (2011); Guo et al., Neuron 70, 924-938 (2011); Luo et al., PLoS Genet 6 (2010); Liu et al., Cell Stem Cell 6 (2010)). Briefly, cells were preblocked using DPBS containing 5% normal goat serum (VECTOR, S-1000) and 0.1% Triton X-100 for 30 min, followed by overnight incubation with primary antibodies: mouse anti-Tuj1 (1:1000, Promega, G712A) and rabbit anti-S100β (1:1000, Dako, Z0334).
After washing with Dulbecco s Phosphate Buffered Saline (DPBS), cells were incubated with secondary antibodies that included goat anti-mouse 568 (1:1000, Invitrogen, A11031), goat anti-rabbit 488 (1:1000, Invitrogen, A11008) followed by counterstaining with the fluorescent nuclear dye 4′,6-diamidino-2′-phenylindole dihydrochloride (DAPI, Sigma-Aldrich, B2261). […] (VECTOR, H-1000), the numbers of Tuj1, GFAP-positive cells were quantified using an Olympus BX51 microscope equipped with a MicroFire digital camera (Optronics) and a motorized stage using a 20× objective lens. The quantification was carried out using an unbiased stereology method with assistance from StereoInvestigator software (MBF Biosciences). The percentage of differentiated cells was calculated as the number of Tuj1- or GFAP-labeled cells divided by the total number of cells stained with DAPI.

[3] = test system: Fmr1 KO and wildtype NPCs; assay: Western blot analyses of p-AKT, p-MDM2, MDM2 and P53 in NPCs; conditions: total AKT as loading control
[4] = test system: Fmr1 KO and wildtype NPCs; assay: as above
Protocol: NPCs were isolated from the dentate gyms of 8 to 10-week-old male Fmr1 KO mice and wild-type (wildtype) littermate controls based on our published methods (12, 64). Independently isolated cells serve as biological replicates. Proliferation and differentiation of NPCs was analyzed as described (11, 12, 61). We used only early passage cells (between passage 4 and 10) and only the same passage numbers of wildtype and Fmr1 KO cells. For each experiment, triplicate wells of cells were analyzed, and results were averaged as one data point (n=1). At least 3 independent biological replicates were used (n=3) for statistical analyses.
Protein samples were separated on SDS-PAGE gels (Bio-Rad), transferred to PVDF membranes (Millipore), and incubated with primary antibodies. After incubation with fluorescence-labeled secondary antibodies (Li—CoR), the membranes were imaged using Li—CoR and quantification was performed using ImageJ software. At least n=3 independent blots were used for statistical analysis.
For loading controls, membranes were probed with the mouse antibody against GAPDH.

[5] = Fmr1 KO NPCs, 1 μM MK2206, 2 μM Nutlin-3, 1 μM RG7112, 4 μM YH239-EE
[6] = Fmr1 KO NPCs, 1 μM MK2206, 2 μM Nutlin-3, 1 μM RG7112
[7] = wildtype NPCs, 1 μM MK2206, 2 μM Nutlin-3

| Structure (SMILES) | cell proliferation (BrdU+ cells) [1, 5] | astroglial differentiation (GFAP+) [2, 6] | neuronal differentiation (Tuj1+) [2, 6] | p-AKT ([3]; Fmr1 KO NPCs) | p-AKT ([3]; wildtype NPCs) | astroglial differentiation (GFAP+) [2, 7] | neuronal differentiation (Tuj1+) [2, 7] | P53 expression ([4]; Fmr1 KO NPCs) | p-MDM2 (Ser166) ([4]; Fmr1 KO NPCs) | total MDM2 ([4]; Fmr1 KO NPCs) | p-MDM2 (Ser166) ([4]; wildtype NPCs) | total MDM2 ([4]; wildtype NPCs) | cell proliferation (BrdU+ cells) [1, 7] |
| --- | --- | --- | --- | --- | --- | --- | --- | --- | --- | --- | --- | --- | --- |
| CCOC(=O)c1[nH]c2cc(Cl)ccc2c1C(C(=O)NC(C)(C)C)N(C=O)Cc1ccc(Cl)cc1 (centres unmarked) [YH239-EE] | rescued the cell proliferation phenotype | – | – | – | – | – | – | – | – | – | – | – | – |
| CCOc1cc(C(C)(C)C)ccc1C1=N[C@@](C)(c2ccc(Cl)cc2)[C@@](C)(c2ccc(Cl)cc2)N1C(=O)N1CCN(CCCS(C)(=O)=O)CC1 [RG7112] | rescued the cell proliferation phenotype | rescued astroglial differentiation phenotypes | rescued neuronal differentiation phenotypes | – | – | – | – | – | – | – | – | – | – |
| NC1(c2ccc(-c3nc4ccn5c(=O)[nH]nc5c4cc3-c3ccccc3)cc2)CCC1 [MK-2206] | decreased cell proliferation | decreased | increased neuronal differentiation | reduced p-AKT | reduced p-AKT | decreased | increased neuronal differentiation | enhanced P53 expression | reduced p-MDM2 | without affecting total MDM2 | reduced p-MDM2 | without affecting total MDM2 | decreased cell proliferation |
